# Test results from patent US9957267B2, “Somatostatin modulators and uses thereof” (Crinetics Pharmaceuticals, Inc., priority 2015, dated 2018).
# Where two headings read alike, the source gives them in different places.
# Experiments:
# Type in all cases: cell-based
# SSTR1 = molecular target: T1, SSTR1 (Homo sapiens, UniProt P30872); test: cAMP functional agonist assay, CHO cells expressing SSTR1
# T1 construct: expressed in transfected cells
# Method: (§1) Chinese hamster ovary (CHO) cells stably expressing one of the six human or rodent somatostatin receptor subtypes are grown to 85-100% confluence on standard tissue culture dishes in F12-Ham's growth media (Hyclone) with following additives: 10% donor calf serum (Hyclone), 200 U/mL penicillin (Hyclone), 200 μg/mL streptomycin (Hyclone), 20 mM HEPES (Hyclone), 200 μg/mL hygromycin Hyclone.
# (§2) General overview: All SSTR subtypes are Gi coupled G-protein coupled receptors (GPCRs) that lead to decreases in intracellular cyclic AMP (cAMP) when activated by an agonist. […] One example of an intracellular cAMP assay is described below.
# SSTR3 = SSTR3 (UniProt P32745); test: cAMP functional agonist assay, CHO cells expressing SSTR3; conditions: CHO cells stably expressing SSTR3, cAMP
# SSTR3, sequence (P32745 whole entry): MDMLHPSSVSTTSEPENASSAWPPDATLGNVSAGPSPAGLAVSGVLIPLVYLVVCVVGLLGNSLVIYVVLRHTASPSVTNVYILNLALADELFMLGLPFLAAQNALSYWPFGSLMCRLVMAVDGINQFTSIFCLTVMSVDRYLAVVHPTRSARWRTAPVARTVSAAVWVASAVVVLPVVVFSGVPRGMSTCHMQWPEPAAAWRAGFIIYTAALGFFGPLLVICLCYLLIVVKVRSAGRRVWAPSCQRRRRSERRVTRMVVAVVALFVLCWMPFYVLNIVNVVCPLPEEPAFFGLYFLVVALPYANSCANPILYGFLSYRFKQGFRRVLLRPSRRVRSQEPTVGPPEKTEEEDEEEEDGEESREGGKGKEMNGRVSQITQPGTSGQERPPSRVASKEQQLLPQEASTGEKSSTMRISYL
# Method: as §1
# (§3) General overview: All SSTR subtypes are Gi coupled G-protein coupled receptors (GPCRs) that lead to decreases in intracellular cyclic AMP (cAMP) when activated by an agonist. Therefore, measurement of intracellular cAMP levels can be used to assess whether compounds of the invention are agonists of SSTR subtypes (John Kelly, Troy Stevens, W. Joseph Thompson, and Roland Seifert, Current Protocols in Pharmacology, 2005, 2.2.1-2.2). One example of an intracellular cAMP assay is described below.
# SSTR4 = molecular target: T2, SSTR4 (Homo sapiens, UniProt P31391); test: cAMP functional agonist assay, CHO cells expressing SSTR4
# T2 construct: expressed in transfected cells
# T2 sequence (P31391 whole entry): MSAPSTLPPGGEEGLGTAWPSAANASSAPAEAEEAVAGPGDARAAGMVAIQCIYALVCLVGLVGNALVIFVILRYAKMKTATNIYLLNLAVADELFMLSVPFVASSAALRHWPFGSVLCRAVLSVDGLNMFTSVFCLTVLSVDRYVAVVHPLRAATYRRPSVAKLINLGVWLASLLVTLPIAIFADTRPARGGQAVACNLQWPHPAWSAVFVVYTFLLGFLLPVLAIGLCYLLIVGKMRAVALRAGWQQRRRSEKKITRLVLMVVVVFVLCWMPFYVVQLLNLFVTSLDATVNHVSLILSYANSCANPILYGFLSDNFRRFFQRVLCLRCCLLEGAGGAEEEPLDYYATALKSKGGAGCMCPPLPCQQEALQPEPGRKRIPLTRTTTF
# Method: as §1, §2
# SSTR5 = molecular target: T3, SSTR5 (Homo sapiens, UniProt P35346); test: cAMP functional agonist assay, CHO cells expressing SSTR5; conditions: CHO cells stably expressing SSTR5, cAMP
# T3 construct: expressed in transfected cells
# T3 sequence (P35346 whole entry): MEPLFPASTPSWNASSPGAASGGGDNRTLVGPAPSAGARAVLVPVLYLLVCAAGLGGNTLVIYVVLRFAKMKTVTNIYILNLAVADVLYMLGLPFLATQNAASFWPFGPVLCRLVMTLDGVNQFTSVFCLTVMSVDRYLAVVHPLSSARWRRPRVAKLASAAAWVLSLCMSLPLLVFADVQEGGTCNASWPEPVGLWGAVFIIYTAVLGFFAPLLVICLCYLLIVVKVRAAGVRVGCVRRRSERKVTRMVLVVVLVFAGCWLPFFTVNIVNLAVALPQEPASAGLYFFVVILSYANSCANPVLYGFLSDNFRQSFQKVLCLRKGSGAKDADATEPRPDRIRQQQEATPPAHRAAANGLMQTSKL
# Method: as §1, §3
# [1] = CHO cells stably expressing SSTR1, cAMP, read-out: SSTR1 EC50
# T1 sequence (P30872 whole entry): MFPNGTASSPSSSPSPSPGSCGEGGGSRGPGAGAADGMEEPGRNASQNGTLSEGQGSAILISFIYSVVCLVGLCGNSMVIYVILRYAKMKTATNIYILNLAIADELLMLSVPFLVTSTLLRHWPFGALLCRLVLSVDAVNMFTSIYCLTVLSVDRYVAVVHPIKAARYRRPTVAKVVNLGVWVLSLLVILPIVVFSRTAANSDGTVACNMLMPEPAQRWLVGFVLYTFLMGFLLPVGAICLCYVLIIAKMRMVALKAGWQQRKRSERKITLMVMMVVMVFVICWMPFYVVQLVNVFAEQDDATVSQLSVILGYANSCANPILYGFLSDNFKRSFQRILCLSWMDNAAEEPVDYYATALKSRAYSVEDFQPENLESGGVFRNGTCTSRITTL
SMILES,EC50 (SSTR1) [nM],EC50 (SSTR3) [nM],"EC50 (SSTR4; CHO cells stably expressing SSTR4, cAMP, read-out: SSTR4 EC50) [nM]",EC50 (SSTR5) [nM],EC50 (SSTR4) [nM],EC50 (SSTR1; [1]) [nM]
"Cc1cc(C)cc(-c2cnc3ncn(-c4cccc(O)c4)c(=O)c3c2CN(C)CCN)c1 [Compound A-1, 5-{[(2-aminoethyl)(methyl)amino]methyl}-6-(3,5-dimethylphenyl)-3-(3-hydroxyphenyl)-3H,4H-pyrido[2,3-d]pyrimidin-4-one]",> 10000,100 to 10000,< 100,> 10000,,
"CCN(CCN)Cc1c(-c2cc(C)cc(C)c2)cnc2ncn(-c3cccc(O)c3)c(=O)c12 [Compound A-2, 5-{[(2-aminoethyl)(ethyl)amino]methyl}-6-(3,5-dimethylphenyl)-3-(3-hydroxyphenyl)-3H,4H-pyrido[2,3-d]pyrimidin-4-one]",> 10000,100 to 10000,,100 to 10000,< 100,
"Cc1cc(C)cc(-c2cnc3ncn(-c4cccc(O)c4)c(=O)c3c2CN(C)C(C)CN)c1 (centres unmarked) [Compound A-7, 5-{[(1-aminopropan-2-yl)(methyl)amino]methyl}-6-(3,5-dimethylphenyl)-3-(3-hydroxyphenyl)-3H,4H-pyrido[2,3-d]pyrimidin-4-one]",,100 to 10000,,,< 100,
"Cc1cc(C)cc(-c2cnc3ncn(-c4cccc(O)c4)c(=O)c3c2CN(C)C[C@H](C)N)c1 [Compound A-8, 5-({[(2S)-2-aminopropyl](methyl)amino}methyl)-6-(3,5-dimethylphenyl)-3-(3-hydroxyphenyl)-3H,4H-pyrido[2,3-d]pyrimidin-4-one]",,100 to 10000,,> 10000,< 100,
"Cc1cc(C)cc(-c2cnc3ncn(-c4cccc(O)c4)c(=O)c3c2CN2CCC(N)C2)c1 (centres unmarked) [Compound A-10, 5-[(3-aminopyrrolidin-1-yl)methyl]-6-(3,5-dimethylphenyl)-3-(3-hydroxyphenyl)-3H,4H-pyrido[2,3-d]pyrimidin-4-one]",,> 10000,,,100 to 10000,
"Cc1cc(C)cc(-c2cnc3ncn(-c4cccc(O)c4)c(=O)c3c2CN2CCCC2CN)c1 (centres unmarked) [Compound A-11, 5-{[2-(aminomethyl)pyrrolidin-1-yl]methyl}-6-(3,5-dimethylphenyl)-3-(3-hydroxyphenyl)-3H,4H-pyrido[2,3-d]pyrimidin-4-one]",100 to 10000,,,,< 100,
"Cc1cc(C)cc(-c2cnc3ncn(-c4cccc(O)c4)c(=O)c3c2CN(C)CC2(N)CCCC2)c1 [Compound A-12, 5-({[(1-aminocyclopentyl)methyl](methyl)amino}methyl)-6-(3,5-dimethylphenyl)-3-(3-hydroxyphenyl)-3H,4H-pyrido[2,3-d]pyrimidin-4-one]",,100 to 10000,,100 to 10000,< 100,
"Cc1cc(C)cc(-c2cnc3ncn(-c4cccc(O)c4)c(=O)c3c2CN(C)CC2CCCCN2)c1 (centres unmarked) [Compound A-13, 6-(3,5-dimethylphenyl)-3-(3-hydroxyphenyl)-5-{[methyl(piperidin-2-ylmethyl)amino]methyl}-3H,4H-pyrido[2,3-d]pyrimidin-4-one]",100 to 10000,< 100,,> 10000,< 100,
"Cc1cc(C)cc(-c2cnc3ncn(-c4cccc(O)c4)c(=O)c3c2CN(C)C[C@H]2CCCCN2)c1 [Compound A-14, 6-(3,5-dimethylphenyl)-3-(3-hydroxyphenyl)-5-({methyl[(2R)-piperidin-2-ylmethyl]amino}methyl)-3H,4H-pyrido[2,3-d]pyrimidin-4-one]",> 10000,< 100,,> 10000,< 100,
"Cc1cc(C)cc(-c2cnc3ncn(-c4cccc(O)c4)c(=O)c3c2CN(C)C[C@@H]2CCCCN2)c1 [Compound A-15, 6-(3,5-dimethylphenyl)-3-(3-hydroxyphenyl)-5-({methyl[(2S)-piperidin-2-ylmethyl]amino}methyl)-3H,4H-pyrido[2,3-d]pyrimidin-4-one]",100 to 10000,< 100,,100 to 10000,< 100,
"Cc1cc(C)cc(-c2cnc3ncn(-c4cccc(O)c4)c(=O)c3c2CN(C)C[C@H]2CCCN2)c1 [Compound A-16, 6-(3,5-dimethylphenyl)-3-(3-hydroxyphenyl)-5-({methyl[(2R)-pyrrolidin-2-ylmethyl]amino}methyl)-3H,4H-pyrido[2,3-d]pyrimidin-4-one]",> 10000,< 100,,> 10000,< 100,
"Cc1cc(C)cc(-c2cnc3ncn(-c4cccc(O)c4)c(=O)c3c2CN(C)C[C@@H]2CCCN2)c1 [Compound A-17, 6-(3,5-dimethylphenyl)-3-(3-hydroxyphenyl)-5-({methyl[(2S)-pyrrolidin-2-ylmethyl]amino}methyl)-3H,4H-pyrido[2,3-d]pyrimidin-4-one]",100 to 10000,< 100,,,< 100,
"Cc1cc(C)cc(-c2cnc3ncn(-c4cccc(O)c4)c(=O)c3c2CN(C)C[C@@H]2CCN2)c1 [Compound A-18, 5-({[(2S)-azetidin-2-ylmethyl](methyl)amino}methyl)-6-(3,5-dimethylphenyl)-3-(3-hydroxyphenyl)-3H,4H-pyrido[2,3-d]pyrimidin-4-one]",100 to 10000,100 to 10000,,,< 100,
"Cc1cc(C)cc(-c2cnc3ncn(-c4cccc(O)c4)c(=O)c3c2CN(C)CC2COCCN2)c1 (centres unmarked) [Compound A-19, 6-(3,5-dimethylphenyl)-3-(3-hydroxyphenyl)-5-{[methyl(morpholin-3-ylmethyl)amino]methyl}-3H,4H-pyrido[2,3-d]pyrimidin-4-one]",,< 100,,> 10000,< 100,
"Cc1cc(Cl)cc(-c2cnc3ncn(-c4cccc(O)c4)c(=O)c3c2CN(C)C[C@@H]2CCCN2)c1 [Compound A-30, 6-(3-chloro-5-methylphenyl)-3-(3-hydroxyphenyl)-5-({methyl[(2S)-pyrrolidin-2-ylmethyl]amino}methyl)-3H,4H-pyrido[2,3-d]pyrimidin-4-one]",100 to 10000,< 100,,100 to 10000,< 100,
"COc1cccc(-n2cnc3ncc(-c4cc(C)cc(C)c4)c(CN(C)C[C@@H]4CCCN4)c3c2=O)c1 [Compound A-33, 6-(3,5-dimethylphenyl)-3-(3-methoxyphenyl)-5-({methyl[(2S)-pyrrolidin-2-ylmethyl]amino}methyl)-3H,4H-pyrido[2,3-d]pyrimidin-4-one]",,100 to 10000,,,< 100,
"CN(Cc1c(-c2cc(F)cc(Cl)c2)cnc2ncn(-c3cccc(O)c3)c(=O)c12)C[C@@H]1CCCN1 [Compound A-35, 6-(3-chloro-5-fluorophenyl)-3-(3-hydroxyphenyl)-5-({methyl[(2S)-pyrrolidin-2-ylmethyl]amino}methyl)-3H,4H-pyrido[2,3-d]pyrimidin-4-one]",100 to 10000,< 100,,100 to 10000,< 100,
"Cc1cc(F)cc(-c2cnc3ncn(-c4cccc(O)c4)c(=O)c3c2CN(C)C[C@@H]2CCCN2)c1 [Compound A-36, 6-(3-fluoro-5-methylphenyl)-3-(3-hydroxyphenyl)-5-({methyl[(2S)-pyrrolidin-2-ylmethyl]amino}methyl)-3H,4H-pyrido[2,3-d]pyrimidin-4-one]",100 to 10000,100 to 10000,,> 10000,< 100,
"Cc1cc(C)cc(-c2cnc3ncn(-c4cccc(CO)c4)c(=O)c3c2CN(C)C[C@@H]2CCCN2)c1 [Compound A-40, 6-(3,5-dimethylphenyl)-3-[3-(hydroxymethyl)phenyl]-5-({methyl[(2S)-pyrrolidin-2-ylmethyl]amino}methyl)-3H,4H-pyrido[2,3-d]pyrimidin-4-one]",,100 to 10000,,,< 100,
"Cc1cc(C)cc(-c2cnc3ncn(-c4ccc(O)cc4)c(=O)c3c2CN(C)C[C@@H]2CCCN2)c1 [Compound A-41, 6-(3,5-dimethylphenyl)-3-(4-hydroxyphenyl)-5-({methyl[(2S)-pyrrolidin-2-ylmethyl]amino}methyl)-3H,4H-pyrido[2,3-d]pyrimidin-4-one]",,100 to 10000,,,< 100,
"CNC(=O)c1cccc(-n2cnc3ncc(-c4cc(C)cc(C)c4)c(CN(C)C[C@@H]4CCCN4)c3c2=O)c1 [Compound A-43, 3-[6-(3,5-dimethylphenyl)-5-({methyl[(2S)-pyrrolidin-2-ylmethyl]amino}methyl)-4-oxo-3H,4H-pyrido[2,3-d]pyrimidin-3-yl]-N-methylbenzamide]",,100 to 10000,,,< 100,
"Cc1cc(Cl)cc(-c2cnc3ncn(-c4cc(O)cc(F)c4)c(=O)c3c2CN(C)C[C@@H]2CCCN2)c1 [Compound A-47, 6-(3-chloro-5-methylphenyl)-3-(3-fluoro-5-hydroxyphenyl)-5-({methyl[(2S)-pyrrolidin-2-ylmethyl]amino}methyl)-3H,4H-pyrido[2,3-d]pyrimidin-4-one]",,< 100,,100 to 10000,,100 to 10000
"Cc1cc(Cl)cc(-c2cnc3ncn(-c4cc(O)cc(F)c4)c(=O)c3c2CN(C)C[C@H]2CCCN2)c1 [Compound A-53, 6-(3-chloro-5-methylphenyl)-3-(3-fluoro-5-hydroxyphenyl)-5-({methyl[(2R)-pyrrolidin-2-ylmethyl]amino}methyl)-3H,4H-pyrido[2,3-d]pyrimidin-4-one]",,< 100,,> 10000,,100 to 10000
